{
  "source": "paper PMC6356299",
  "about": "“Design and Synthesis of a Chitodisaccharide-Based Affinity Resin for Chitosanases Purification” (Marine Drugs, 2019)",
  "biological_target": "T1, CsnOU01 (GH family 46 chitosanase) (Microbacterium sp. OU01, UniProt A7KBW5)",
  "T1 construct": "about 28 kDa",
  "T1 sequence (A7KBW5 26-266)": "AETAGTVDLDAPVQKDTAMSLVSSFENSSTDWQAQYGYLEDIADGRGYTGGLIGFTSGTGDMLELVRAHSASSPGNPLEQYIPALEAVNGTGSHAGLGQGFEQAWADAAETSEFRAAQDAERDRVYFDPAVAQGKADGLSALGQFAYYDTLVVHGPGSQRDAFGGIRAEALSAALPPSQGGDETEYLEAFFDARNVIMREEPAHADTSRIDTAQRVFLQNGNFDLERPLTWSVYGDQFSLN",
  "assay": "equilibrium adsorption to ligand-coupled Sepharose 6B, Scatchard analysis",
  "type": "binding",
  "conditions": "compound immobilised on Sepharose 6B via cyanuric chloride spacer (not the free sugar); Kd in mass concentration of enzyme; 20 mM Tris-HCl, pH 8.0",
  "excerpt": "equilibrium adsorption to ligand-coupled Sepharose 6B, Scatchard analysis on CsnOU01 (GH family 46 chitosanase)",
  "data": [
    {"compound": "N[C@H]1[C@H](O[C@H]2[C@H](O)[C@@H](N)C(O)O[C@@H]2CO)O[C@H](CO)[C@@H](O)[C@@H]1O", "note": "(stereo partly drawn) [CHDS, chitodisaccharide]", "values": [
      {"measurement": "Kd", "result": 16.4, "unit": "µg/mL"}
    ]},
    {"compound": "glucosamine", "values": [
      {"measurement": "Kd", "result": 88.5, "unit": "µg/mL"}
    ]},
    {"compound": "chitotrisaccharide [CHTS]", "values": [
      {"measurement": "Kd", "result": 20.7, "unit": "µg/mL"}
    ]}
  ]
}
